Test results from ChEMBL document CHEMBL4270506, “Recent advances in drug discovery of phototherapeutic non-porphyrinic anticancer agents” (Eur J Med Chem, 2017).

Legend:
SK-OV-3 = assay: Phototoxicity in human SKOV3 cells assessed as reduction in cell viability in presence of irradiation with green lED light at 25.2 J/cm2 for 2 hrs followed by incubation in dark for 24 hrs by MTT assay; format: functional, cell-based; details: SK-OV-3, light or radiation study
[1] = Dark toxicity in mouse DLA cells assessed as inhibition of cell viability by trypan blue dye exclusion method; format: cell-based; details: read-out: INH
[2] = Phototoxicity in mouse DLA cells assessed as inhibition of cell viability illuminated for 10 mins at total dose of 46 J/cm2 irradiation by trypan blue dye exclusion method; format: functional
[3] = Dark toxicity in human […] cells assessed as cell viability at 50 ug/ml by CCK8 assay; format: cell-based; details: read-out: Activity
[4] = Phototoxicity in human […] cells assessed as cell viability at 5 ug/ml under irradiation at 532 nm by CCK8 assay; format: functional; details: light or radiation study, read-out: Activity
[5] = Dark toxicity in human LoVo cells assessed as reduction in cell viability after 72 hrs by MTT assay; format: cell-based
LoVo = assay: Phototoxicity in human LoVo cells assessed as cell viability at 2 to 8 umol/L pre-incubated for 30 mins before irradiation at 365 nm at 3.75 J/cm2 and measured after 72 hrs by MTT assay; format: functional; details: light or radiation study
[6] = Dark toxicity in human Jurkat cells assessed as reduction in cell viability after 72 hrs by MTT assay; format: cell-based
Jurkat = assay: Phototoxicity in human Jurkat cells assessed as cell viability at 2 to 8 umol/L pre-incubated for 30 mins before irradiation at 365 nm at 3.75 J/cm2 and measured after 72 hrs by MTT assay; format: functional; details: light or radiation study
[7] = Dark toxicity in human K562 cells assessed as reduction in cell viability after 72 hrs by MTT assay; format: cell-based
K562 = assay: Phototoxicity in human K562 cells assessed as cell viability at 2 to 8 umol/L pre-incubated for 30 mins before irradiation at 365 nm at 3.75 J/cm2 and measured after 72 hrs by MTT assay; format: functional; details: K562, light or radiation study
[8] = Dark toxicity in human A431 cells assessed as reduction in cell viability after 72 hrs by MTT assay; format: cell-based, A-431
A-431 = assay: Phototoxicity in human A431 cells assessed as cell viability at 2 to 8 umol/L pre-incubated for 30 mins before irradiation at 365 nm at 3.75 J/cm2 and measured after 72 hrs by MTT assay; format: functional; details: A-431, light or radiation study
[9] = Dark toxicity in human […] cells assessed as cell viability at 10 ug/ml by CCK8 assay; format: cell-based; details: read-out: Activity
[10] = Phototoxicity in human […] cells assessed as cell viability at 10 ug/ml under irradiation at 457 nm at 20 J/cm2 by CCK8 assay; format: functional; details: light or radiation study, read-out: Activity
[11] = Lipophilicity, log P of the compound; format: physicochemical; details: octanol/water
[12] = Dark toxicity in human BxPC3 cells assessed as inhibition of cell growth at 6.25 to 25 uM incubated for 24 hrs by MTT assay; format: cell-based, BXPC-3; details: read-out: GI
BXPC-3 [13] = assay: Phototoxicity in human BxPC3 cells assessed as inhibition of cell growth at 6.25 uM pre-incubated for 3 hrs before irradiation with 780 nm light for 1 mins and measured after 24 hrs by MTT assay; format: functional; details: BXPC-3, light or radiation study, read-out: GI
BXPC-3 [14] = assay: Phototoxicity in human BxPC3 cells assessed as inhibition of cell growth at 12.5 uM pre-incubated for 3 hrs before irradiation with 780 nm light for 1 mins and measured after 24 hrs by MTT assay; format: functional; details: BXPC-3, light or radiation study, read-out: GI
BXPC-3 [15] = assay: Phototoxicity in human BxPC3 cells assessed as inhibition of cell growth at 25 uM pre-incubated for 3 hrs before irradiation with 780 nm light for 1 mins and measured after 24 hrs by MTT assay; format: functional; details: BXPC-3, light or radiation study, read-out: GI
[16] = Dark toxicity in human MIAPaCa2 cells assessed as inhibition of cell growth at 6.25 to 25 uM incubated for 24 hrs by MTT assay; format: cell-based, MIA PaCa-2; details: read-out: GI
MIA PaCa-2 [17] = assay: Phototoxicity in human MIAPaCa2 cells assessed as inhibition of cell growth at 6.25 uM pre-incubated for 3 hrs before irradiation with 780 nm light for 1 mins and measured after 24 hrs by MTT assay; format: functional; details: MIA PaCa-2, light or radiation study, read-out: GI
MIA PaCa-2 [18] = assay: Phototoxicity in human MIAPaCa2 cells assessed as inhibition of cell growth at 12.5 uM pre-incubated for 3 hrs before irradiation with 780 nm light for 1 mins and measured after 24 hrs by MTT assay; format: functional; details: MIA PaCa-2, light or radiation study, read-out: GI
MIA PaCa-2 [19] = assay: Phototoxicity in human MIAPaCa2 cells assessed as inhibition of cell growth at 25 uM pre-incubated for 3 hrs before irradiation with 780 nm light for 1 mins and measured after 24 hrs by MTT assay; format: functional; details: MIA PaCa-2, light or radiation study, read-out: GI

In the case of `CC1=C(I)C(C)=[N+]2C1=Cc1c(C)c(I)c(C)n1[B-]2(F)F`, the EC50 (SK-OV-3) is reported as 0.0288 µM.
For `CC(C)c1ccc(C2=C([O-])/C(=C\c3sc4cc(I)ccc4[n+]3CCCCS(=O)(=O)O)C2=O)cc1`, the cytotoxicity [1] was less than 10% and the “inhibition (INH)” value [2] was 80%.
`CCN(CC)c1ccc(/C=C2\CC/C(=C\c3ccc(N(CCC(=O)O)CCC(=O)O)cc3)C2=O)cc1` gave a viability at 50 ug/ml [3] greater than 70% and a viability at 5 µg/mL [4] greater than 80%.
With `CCOC(=O)c1cc2c(n1Cc1ccc(C)cc1)-c1nc(N)ncc1CC2` the GI50 at 72 h [5] was greater than 20 µM, the GI50 (LoVo) was 0.34 µM and the GI50 at 72 h [6] was greater than 20 µM. The GI50 (Jurkat) was 0.23 µM, the GI50 at 72 h [7] was greater than 20 µM and the GI50 (K562) was 0.41 µM. The GI50 at 72 h [8] was greater than 20 µM and the GI50 (A-431) was 0.26 µM.
Work on `COCCOCCOCCOCCN(CCOCCOCCOCCOC)c1ccc(/C=C2\CC/C(=C\c3ccc(N(CCOCCOCCOCCOC)CCOCCOCCOCCOC)cc3)C2=O)cc1` yielded a viability at 10 ug/ml [9] greater than 80%, a viability at 10 µg/mL [10] greater than 60% and a logP [11] of 2.32 to 3.04.
Compound `CC1(C)C(/C=C/C2=C(Cl)C(=C/C=C3/N(CCCCS(=O)(=O)O)c4cc(I)cc(I)c4C3(C)C)/CCC2)=[N+](CCCCS(=O)(=O)O)c2cc(I)cc(I)c21` has an inhibition at 24 h, up to 25 µM [12] of 0%, an inhibition of growth at 6.25 µM (BXPC-3 [13]) greater than 10% and an inhibition of growth at 12.5 µM (BXPC-3 [14]) greater than 20%. It also gave an inhibition of growth at 25 µM (BXPC-3 [15]) of 40%, an inhibition at 24 h, up to 25 µM [16] of 0% and an inhibition of growth at 6.25 µM (MIA PaCa-2 [17]) of 20%. The inhibition of growth at 12.5 µM (MIA PaCa-2 [18]) was greater than 40% and the inhibition of growth at 25 µM (MIA PaCa-2 [19]) was 70%.
`CN(CCC(=O)O)c1ccc(/C=C2\CC/C(=C\c3ccc(N(C)CCC(=O)O)cc3)C2=O)cc1` gave a viability at 50 ug/ml [3] greater than 70% and a viability at 5 µg/mL [4] greater than 80%.
In the case of `CCN1/C(=C\C2=C([O-])C(=C\c3sc4cc(I)ccc4[n+]3CCCCS(=O)(=O)O)/C2=O)Sc2ccccc21`, the cytotoxicity [1] is reported as less than 10% and the “inhibition (INH)” value [2] is reported as 95 - 100%.
`CCOC(=O)c1cc2c(n1C)-c1nc(N)ncc1CC2` showed a GI50 at 72 h [5] greater than 20 µM, a GI50 (LoVo) greater than 20 µM and a GI50 at 72 h [6] greater than 20 µM. The GI50 (Jurkat) was 8.42 µM, the GI50 at 72 h [7] was greater than 20 µM and the GI50 (K562) was greater than 20 µM. The GI50 at 72 h [8] was greater than 20 µM and the GI50 (A-431) was greater than 20 µM.
`COCCOCCOCCOCCN(C)c1ccc(/C=C2\CC/C(=C\c3ccc(N(C)CCOCCOCCOCCOC)cc3)C2=O)cc1` showed a viability at 10 ug/ml [9] greater than 80%, a viability at 10 µg/mL [10] of less than 10% and a logP [11] of 2.32 to 3.04.
With `CC1=C(I)C(C)=[N+]2C1=C(c1c(Cl)cccc1Cl)c1c(C)c(I)c(C)n1[B-]2(F)F` the EC50 (SK-OV-3) was 0.00077 µM.
With `CCN(CC)c1ccc(/C=C2\CC/C(=C\c3ccc(N(C)CCC(=O)O)cc3)C2=O)cc1` the viability at 50 ug/ml [3] was less than 30% and the viability at 5 µg/mL [4] was less than 10%.
